According to patent US11666558B2, “Methods of treating intraocular pressure with activators of Tie-2” (EyePoint Pharmaceuticals, Inc., priority 2015, dated 2023):
Entries after “also recorded” stand apart in the source; their conditions may differ. Counter-ions that a name gives are not always drawn. Like-named read-outs stand apart in the source and are kept apart here.

How the values were obtained:
Type in all cases: in vivo, New Zealand White rabbits
[1] = Plasma concentrations and pharmacokinetic parameters after topical ocular, subcutaneous and intravitreal administration; details: for AUC(0-t): read-out: AUClast (± SE); for concentration at 0.5 hr / concentration at 0.5 h: 0.50 hr
Experimental: To measure the concentration of Compound 1 in plasma and ocular tissues following topical ocular, subcutaneous, and intravitreal administration, New Zealand White rabbits were administered Compound 1, and plasma and ocular samples were collected at pre-determined time points. Compound 1 formulations were prepared fresh on each day of dosing.
New Zealand White rabbits weighing 2.5 to 3.5 kg were used on this study. Rabbits were housed one per cage. Animals were not fasted and only healthy animals with no ocular illness were used. Two rabbits per group were sacrificed at each of four ocular tissue sampling time points for a total of eight rabbits per group.
Animals were anesthetized for ocular (topical) and intravitreal dosing following the 12IA7 IACUC protocol. Each rabbit received a bolus dose of test formulation either via topical ocular administration 3 times daily on Days 1 and 2 (at 0, 6, and 12 hours), and once on Day 3 (at 0 hours) into both eyes; via intravitreal administration into both eyes once on Day 1 (at 0 hours); or via subcutaneous administration 2 times daily on Days 1 and 2 (at 0 and 8 hours) and once daily on Day 3 (at 0 hours). Doses were given within an approximately 1 hour window each day where applicable.
Each blood sample was collected on Day 3 post dose at pre-determined time points from the rabbits via an ear vessel and placed into chilled polypropylene tubes containing sodium heparin as an anticoagulant. Samples were spun by centrifuge at 4° C. and 3,000×g for 5 minutes. Samples were maintained chilled throughout processing. Each plasma sample was placed on dry ice and stored in a freezer at −60° C. to −80° C. pending bioanalysis.
An LC-MS/MS method was developed for the determination of Compound 1 in rabbit aqueous tissues (plasma, aqueous and vitreous humor) and solid ocular tissue samples. A pre-study standard curve was analyzed to determine the specificity, range, and lower limit of quantitation of the method. Plasma and tissue homogenate study samples were extracted and analyzed. All the samples were treated identically to the standards.
One eight-point standard curve was used in each analytical batch. To be accepted, each batch must have had at least five of eight standards with accuracy within ±20% of nominal, except at the lower limit of quantification (LLOQ), where ±25% was acceptable.
Pharmacokinetic parameters were calculated from the time course of the plasma concentration. The maximum plasma concentration (Cmax) and time to the maximum plasma drug concentration (Tmax) were the observed values for each concentration-time profiles. The area under the plasma drug concentration-time curve (AUClast, with last being from time 0 to the last quantifiable point) was calculated using the trapezoidal formula. The mean residence time MRTlast was calculated as a ratio of AUMClast (area under the first movement curve) to AUClast.

[2] = Ophthalmic examination (slit-lamp biomicroscopy, modified McDonald-Shadduck Scoring System) after repeated dosing
Experimental: Prior to placement on study, each animal underwent an ophthalmic examination (slitlamp biomicroscopy and indirect ophthalmoscopy). Ocular findings were scored according to a modified McDonald-Shadduck Scoring System and recorded on a standardized data sheet. The acceptance criteria for placement on study were scores of “0” for all variables.
Ophthalmic examination (slit-lamp biomicroscopy only) was performed at baseline (prior to the start of dosing) and on Days 1, 4, and 8. Ocular findings were scored according to a modified McDonald-Shadduck Scoring System. A slit lamp was used to observe conjunctival discharge, […], […], the cornea, the surface area of cornea involvement, pannus, pupillary response, aqueous flare, cellular flare, iris involvement, and the lens. An indirect ophthalmoscope was used to observe the vitreous, vitral hemorrhage, retinal detachment, retinal hemorrhage, and choroidal/retinal inflammation. Animals were prepared for observation by using a solution (atropine, tropicaminde, or phenylephrine) to dilate the pupils.
Conjunctival discharge was defined as a whitish gray precipitate from the eye. Scoring was as follows.
Conjunctival congestion causes the blood vessels of the eye to become enlarged. Scoring was as follows.
Conjunctival swelling, defined as swelling of the conjunctiva, was scored as follows.

[3] = General health observations after repeated dosing; details: repeated topical (0.45 or 1.2 mg/eye) and subcutaneous (10 mg/kg) dosing over 7 days
Experimental: Animals were observed within their cages once daily throughout the study period. […] General health observations were recorded daily beginning on Day 1 and continuing throughout the course of the study.

[4] = New Zealand White, rabbit, plasma, other: intravitreal, 1.55 mg/kg, plasma, intravitreal 2.5 mg/eye (~1.55 mg/kg), solution
[5] = New Zealand White, rabbit, plasma, other: intravitreal, 2.5 mg, plasma, intravitreal 2.5 mg/eye (~1.55 mg/kg), solution
[6] = New Zealand White, rabbit, plasma, other: intravitreal, 2.5 mg/eye, intravitreal 2.5 mg/eye (~1.55 mg/kg), solution, read-out: plasma Average
[7] = New Zealand White, rabbit, plasma, other: intravitreal, 2.5 mg/eye, intravitreal 2.5 mg/eye (~1.55 mg/kg), solution, read-out: plasma Conc., individual rabbit
[8] = New Zealand White, rabbit, plasma, sc, 5 mg/kg, subcutaneous 5 mg/kg/dose, solution
[9] = New Zealand White, rabbit, plasma, subcutaneous, 5 mg/kg/dose, subcutaneous 5 mg/kg/dose, solution, read-out: plasma Average
[10] = New Zealand White, rabbit, plasma, subcutaneous, 5 mg/kg/dose, subcutaneous 5 mg/kg/dose, solution, read-out: plasma Conc., individual rabbit
[11] = New Zealand White, rabbit, plasma, topical or ocular, 0.7 mg/kg, topical ocular 1.2 mg/eye (~0.7 mg/kg/dose), solution
[12] = New Zealand White, rabbit, plasma, topical or ocular, 1.2 mg, topical ocular 1.2 mg/eye (~0.7 mg/kg/dose), solution
[13] = New Zealand White, rabbit, plasma, topical, 1.2 mg/eye, topical ocular 1.2 mg/eye (~0.7 mg/kg/dose), read-out: plasma Average
[14] = plasma, intravitreal solution, normalized by 1.55 mg/kg
[15] = plasma, subcutaneous solution, normalized by 5 mg/kg
[16] = subcutaneous administration, sodium salt solution

## COC(=O)N[C@@H](Cc1ccccc1)C(=O)N[C@@H](Cc1ccc(NS(=O)(=O)O)cc1)c1csc(-c2cccs2)n1 [Compound 1 sodium salt]
[1]; [4]
  AUC(0-inf): 956 ng·h/mL
  Cmax: 39.8 ng/mL
  MRT last: 15.1 h
  half-life: 8.08 h
  AUC(0-t): 953 ng·h/mL
[1]; New Zealand White, rabbit, plasma, other: intravitreal, 1.55 mg/kg, plasma, intravitreal 2.5 mg/eye (~1.55 mg/kg), solution, read-out: tmax
  Tmax: 3 h
[1]; [5]
  AUC(0-inf): 956 ng·h/mL
  Cmax: 39.8 ± 2.3 ng/mL
  MRT last: 15.1 h
  half-life: 8.08 h
  AUC(0-t): 953 ± 91.1 ng·h/mL
[1]; New Zealand White, rabbit, plasma, other: intravitreal, 2.5 mg, plasma, intravitreal 2.5 mg/eye (~1.55 mg/kg), solution, read-out: tmax
  Tmax: 3 h
[1]; New Zealand White, rabbit, plasma, other: intravitreal, 2.5 mg/eye, intravitreal 2.5 mg/eye (~1.55 mg/kg), solution, 1.0 hr, read-out: plasma Average
  concentration at 1 h: 32.3 ng/mL
[1]; New Zealand White, rabbit, plasma, other: intravitreal, 2.5 mg/eye, intravitreal 2.5 mg/eye (~1.55 mg/kg), solution, 1.0 hr, read-out: plasma Conc., individual rabbit
  concentration at 1 h: 33.2 ng/mL
[1]; [6]
  concentration at 3 h: 39.8 ng/mL
  concentration at 24 hr: 16.9 ng/mL
  concentration at 48 hr: 2.58 ng/mL
  concentration at 72 hr: 0.27 ng/mL
[1]; [7]
  concentration at 3 h: 37.5 ng/mL
  concentration at 24 hr: 19 ng/mL
  concentration at 48 hr: 2.7 ng/mL
  concentration at 72 hr: 0.215 ng/mL
[1]; New Zealand White, rabbit, plasma, other: intravitreal, 2.5 mg/eye, intravitreal 2.5 mg/eye (~1.55 mg/kg), solution, 6.0 hr, read-out: plasma Average
  concentration at 6 h: 36.8 ng/mL
[1]; New Zealand White, rabbit, plasma, other: intravitreal, 2.5 mg/eye, intravitreal 2.5 mg/eye (~1.55 mg/kg), solution, 6.0 hr, read-out: plasma Conc., individual rabbit
  concentration at 6 hr: 44.3 ng/mL
[1]; New Zealand White, rabbit, plasma, sc, 5 mg/kg, plasma, subcutaneous 5 mg/kg/dose, solution
  AUC(0-t): 1560 ± 195 ng·h/mL
[1]; New Zealand White, rabbit, plasma, sc, 5 mg/kg, plasma, subcutaneous 5 mg/kg/dose, solution, read-out: tmax
  Tmax: 0.25 h
[1]; New Zealand White, rabbit, plasma, sc, 5 mg/kg, subcutaneous administration, solution, read-out: Mean plasma Tmax (converted)
  Tmax: 0.25 h
[1]; [8]
  AUC(0-inf): 1560 ng·h/mL
  Cmax: 1520 ± 115 ng/mL
  MRT last: 0.87 h
  half-life: 0.47 h
[1]; [9]
  concentration at 0.25 hr: 1520 ng/mL
  concentration at 0.5 hr: 1100 ng/mL
  concentration at 4 h: 7.76 ng/mL
[1]; [10]
  concentration at 0.25 hr: 1640 ng/mL
  concentration at 0.5 hr: 883 ng/mL
  concentration at 4 h: 7.98 ng/mL
[1]; New Zealand White, rabbit, plasma, subcutaneous, 5 mg/kg/dose, subcutaneous 5 mg/kg/dose, solution, 1.0 hr, read-out: plasma Average
  concentration at 1 hr: 646 ng/mL
[1]; New Zealand White, rabbit, plasma, subcutaneous, 5 mg/kg/dose, subcutaneous 5 mg/kg/dose, solution, 1.0 hr, read-out: plasma Conc., individual rabbit
  concentration at 1 h: 664 ng/mL
[1]; New Zealand White, rabbit, plasma, subcutaneous, 5 mg/kg/dose, subcutaneous 5 mg/kg/dose, solution
  concentration at 2 h: 180 ng/mL
[1]; New Zealand White, rabbit, plasma, topical or ocular, 0.7 mg/kg, plasma, topical ocular 1.2 mg/eye (~0.7 mg/kg/dose), solution
  AUC(0-t): 11.8 ng·h/mL
[1]; New Zealand White, rabbit, plasma, topical or ocular, 0.7 mg/kg, plasma, topical ocular 1.2 mg/eye (~0.7 mg/kg/dose), solution, read-out: tmax
  Tmax: 4 h
[1]; [11]
  Cmax: 7.48 ng/mL
  MRT last: 2.98 h
[1]; New Zealand White, rabbit, plasma, topical or ocular, 1.2 mg, plasma, topical ocular 1.2 mg/eye (~0.7 mg/kg/dose), solution
  AUC(0-t): 11.8 ± 5.7 ng·h/mL
[1]; New Zealand White, rabbit, plasma, topical or ocular, 1.2 mg, plasma, topical ocular 1.2 mg/eye (~0.7 mg/kg/dose), solution, read-out: tmax
  Tmax: 4 h
[1]; [12]
  Cmax: 7.48 ± 5.53 ng/mL
  MRT last: 2.98 h
[1]; [13]
  concentration at 0.5 h: 3.03 ng/mL
  concentration at 4 h: 7.48 ng/mL
[1]; New Zealand White, rabbit, plasma, topical, 1.2 mg/eye, topical ocular 1.2 mg/eye (~0.7 mg/kg/dose), read-out: plasma Conc., individual rabbit
  concentration at 0.5 h: 3.84 ng/mL
[1]; New Zealand White, rabbit, plasma, topical, 1.2 mg/eye, topical ocular 1.2 mg/eye (~0.7 mg/kg/dose), 1.0 hr, read-out: plasma Average
  concentration at 1 h: 1.46 ng/mL
[1]; New Zealand White, rabbit, plasma, topical, 1.2 mg/eye, topical ocular 1.2 mg/eye (~0.7 mg/kg/dose), 1.0 hr, read-out: plasma Conc., individual rabbit
  concentration at 1 h: 1.28 ng/mL
[1]; New Zealand White, rabbit, plasma, topical, 1.2 mg/eye, topical ocular 1.2 mg/eye (~0.7 mg/kg/dose)
  concentration at 2 h: 1.14 ng/mL
[1]; intravitreal administration, sodium salt solution
  Mean plasma Cmax, fold higher than Compound 1 (free acid) suspension: approximately 2 fold
[1]; [14]
  Dose normalized AUClast: 615 kg·ng·h/mL/mg
  Dose normalized AUC∞: 617 kg·ng·h/mL/mg
[1]; plasma, intravitreal solution, normalized by 1.55 mg/kg, listed as Compound 1 (sodium salt)
  Dose normalized AUClast: 615 ± 58.8 kg·ng·h/mL/mg
[1]; [15]
  Dose normalized AUClast: 311 kg·ng·h/mL/mg
  Dose normalized AUC∞: 312 kg·ng·h/mL/mg
[1]; plasma, subcutaneous solution, normalized by 5 mg/kg, listed as Compound 1 (sodium salt)
  Dose normalized AUClast: 311 ± 38.9 kg·ng·h/mL/mg
[1]; plasma, topical ocular, normalized by 0.7 mg/kg
  Dose normalized AUClast: 16.8 kg·ng·h/mL/mg
[1]; plasma, topical ocular, normalized by 0.7 mg/kg, listed as Compound 1 (sodium salt)
  Dose normalized AUClast: 16.8 ± 8.15 kg·ng·h/mL/mg
[1]; [16]
  Mean plasma AUClast, fold higher than Compound 1 (free acid) suspension: approximately 2 fold
  Mean plasma Cmax, fold higher than Compound 1 (free acid) suspension: approximately 3 fold
[2]; Group 2, 0.45 mg/eye topical BID, Day 1
  mild conjunctival congestion (scores=1), animals affected: all five animals
[2]; Group 2, 0.45 mg/eye topical BID, Day 4
  mild conjunctival congestion (scores=1), animals affected: two animals
[2]; Group 3, 1.2 mg/eye topical BID, Day 1
  mild conjunctival congestion (scores=1), animals affected: two animals
[2]; Group 3, 1.2 mg/eye topical BID, Day 4
  mild conjunctival congestion (scores=1), animals affected: two animals
[2]; Group 4, 1.2 mg/eye topical QD, Day 1
  mild conjunctival congestion (scores=1), animals affected: one animal
[2]; Group 4, 1.2 mg/eye topical QD, Day 4
  mild conjunctival congestion (scores=1), animals affected: one animal
[2]; Group 5, 10 mg/kg subcutaneous BID, Day 1
  mild conjunctival congestion (scores=1), animals affected: three animals
[2]; Group 5, 10 mg/kg subcutaneous BID, Day 4
  mild conjunctival congestion (scores=1), animals affected: none
[2]; all groups, Day 8
  ocular anomalies: No ocular anomalies
[2]; repeated topical and subcutaneous dosing
  relation of mild conjunctival congestion to the test article: appeared to be unrelated to the test article
[3]
  general health: normal health and activity; also recorded: No adverse effects
